Positions of bridges follow the written chain, without caps; N, C: chain ends. Non-standard residues stand in square brackets, D forms with d. Residues, ends and D or L forms follow the SMILES beside them. Hyp = O=C(O)[C@@H]1C[C@@H](O)CN1; R8 = C=CCCCCCC[C@@](C)(N)C(=O)O; hLeu = CC(C)CC[C@H](N)C(=O)O; S5 = C=CCCC[C@](C)(N)C(=O)O; AEA = NCCOCC(=O)O

One series has as its system HCT116 p53^+/+ cells. Put plainly: Cell viability assay (CCK-8). Format: cell-based, human.
The next series concerns the target T1, ^24-108MDMX (Homo sapiens, UniProt O15151).
T1 construct: ^24-108MDMX, and a fluorescently tagged p53-derived peptide
T1 sequence (O15151 24-108): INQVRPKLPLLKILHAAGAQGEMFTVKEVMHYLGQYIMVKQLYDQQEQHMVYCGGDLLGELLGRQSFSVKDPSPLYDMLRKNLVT
The series can be described thus: FP-based competitive binding assay. The note with it: MDMX 40 nM, fluorescently tagged p53 peptide 20 nM, PBS pH 7.4, 30 min room temperature; mean of three independent measurements. The protocol:
(§1) An FP-based competitive or binding assay was established using ^25-109MDM2, ^24-108MDMX, and a fluorescently tagged p53-derived peptide as previously described. [34]-[36] For dose-dependent competitive binding experiments, MDM2 or MDMX protein (40 nM) was first incubated with TAMRA-p53 peptide (20 nM) in PBS (pH 7.4) on a Costar 96-well plate, to which a serially diluted solution of test peptide was added to a final volume of 125 μL. After 30 min of incubation at room temperature, the FP values were measured at λex = 530 nm and λem = 580 nm on a Tecan Infinite M1000 plate reader. For binding experiments, FITC-labeled SPMI-HIF2-1 (20 nM) was incubated with different concentrations of MDM2, MDMX, and VHL proteins. Curve fitting was performed using GraphPad Prism software, and Ki values were calculated as described previously. Three replicates and three independent experiments were performed.

The target in another series is T2, ^25-109MDM2 (Homo sapiens, UniProt Q00987).
T2 construct: established using ^25-109MDM2, ^24-108MDMX
The series can be described thus: FP-based competitive binding assay. The note with it: MDM2 40 nM, fluorescently tagged p53 peptide 20 nM, PBS pH 7.4, 30 min room temperature; mean of three independent measurements. The method, then: as §1

A short description of series [1]: α-Helicity by CD spectroscopy. Type of series: physicochemical. The note with it: PB pH 7.2, 10-50 µM peptide, 20°C, calculated from [θ]222. The protocol: Peptides were dissolved in PB (pH = 7.2) to concentrations ranging from 10 to 50 µM. CD spectra were obtained on a Jasco J-715 spectropolarimeter at 20°C. The spectra were collected using a 0.1 cm path length quartz cuvette with the following measurement parameters: wavelength, 185-255 nm; step resolution, 0.1 nm; speed, 20 nm/min; accumulations, 6; bandwidth, 1 nm. The helical content of each peptide was calculated as reported previously.

The next series in a line: Pharmacokinetic study. Format: in vivo. The note with it: mouse, iv, male ICR mice, 1.8 mg/kg single i.v. tail vein, plasma, UPLC-ESI-QqQ-MS, n = 5. The method, then:
The peptides (1.8 mg/kg) were individually dosed in mice intravenously via tail vein injection and the blood samples were collected from the orbital venous plexus at 0, 0.5, 1, 2, 4, 6, 10, 24, and 48 h. All blood samples were centrifuged at 3000 rpm for 10 min, and the obtained plasma samples were immediately frozen at -80 °C until use. The standard curve was established as follows: Stock solutions of PMI-HIF1-1 and SPMI-HIF2-1 dissolved in acetonitrile were spiked into control plasma at final concentrations of 4000, 2000, 1000, 500, 250, 125, 62.5, 31.25, 15.625, 7.8125, 3.90625, 1.953125, and 0.9765625 ng/ml. […] Plasma samples (30 μL) were treated with 90 μL acetonitrile for protein precipitation. Then all samples were vortexed for 2 min and centrifuged for 15 min at 13000 rpm and 4°C. The supernatants were analyzed by ultraperformance liquid chromatography-electrospray ionization-tandem triple quadrupole mass spectrometry (UPLC-ESI-QqQ-MS, Shimadzu 8040). The system was equipped with an XBridge BEH C18 column (2.5 μm, 2.1×100 mm; Waters, Milford, MA, USA). The column temperature was set at 35°C. The injection volume was 4 μl. […] The plasma concentration at each time point was calculated from the extracted peak area of the same mass peaks of each peptide using the corresponding standard curve.

Series [2] deals with HCT-116 orthotopic (rectal mucosa) xenograft. Put plainly: Orthotopic CRC xenograft model. Type of series: in vivo, BALB/c nude mice. The protocol:
Four-week-old male BALB/c nude mice (15-20 g) were used to establish subcutaneous and orthotopic xenograft models. A total of 5 × 10^6 HCT-116 cells were subcutaneously inoculated into the right flanks of the mice. Tumor volume was calculated using the following formula: V = (L × W^2)/2, where L is the length and W is the width of the tumor nodules measured with a vernier caliper. […] Drugs were intravenously injected into the mice every 2 days for 2 weeks. In addition, the model of orthotopic CRC xenografts was established. Briefly, mice were anesthetized after fasting for 12 h. Subsequently, the distal anal and rectal mucosa were exposed, and transanal injection of HCT-116 cells (5 × 10^6) was performed using a 30 G sterile needle. The injection was given directly into the rectal mucosa. Tumor growth was investigated, and once the tumors reached ~0.5 cm in size, the mice were randomly divided into two groups. The mice were treated every other day for 2 weeks with tail vein injections of either vehicle (saline) or sPMI-HIF2-1 (2 mg/kg). Body weight was measured before saline or drug injection. All mice were euthanized on day 14 following drug treatment, and the tumors were isolated, photographed, weighed, and measured.

For series [3], the system named is MDM2 and MDMX in HCT116 cells. Put plainly: Western blot of MDM2 and MDMX protein levels. Type of series: cell-based, human. The method, then:
HCT116, MCF-7, or other cells were seeded in six-well plates (4 × 10^5 cells/well) and treated with PROTACs at the indicated concentrations for 24 h. The cells were lysed in RIPA lysis buffer. The protein concentrations were measured using the BCA method and equal amounts of each sample were separated by SDS-PAGE, followed by transfer onto filter membranes. Then, the membranes were blocked and incubated with primary antibodies (Abcam, UK) at 4 °C overnight, followed by incubation with the secondary antibodies. The protein bands were identified using a ChemiDoc MP Imaging System (Bio-Rad, USA).
In general terms: Immunoblotting shows a protein as a band on a membrane.

For `CC(=O)N[C@H](C(=O)N[C@@H](CO)C(=O)N[C@@H](Cc1ccccc1)C(=O)N[C@]1(C)CCCCCCC=CCCC[C@@](C)(C(=O)NCCOCC(=O)N[C@@H](CC(C)C)C(=O)N[C@@H](C)C(=O)N2C[C@H](O)C[C@H]2C(=O)N[C@@H](Cc2ccc(O)cc2)C(=O)N[C@@H](CCC(C)C)C(=O)N2CCC[C@H]2C(N)=O)NC(=O)[C@H](CC(C)C)NC(=O)[C@H](CC(C)C)NC(=O)[C@H](C)NC(=O)[C@H](Cc2c[nH]c3ccccc23)NC(=O)[C@H](Cc2ccc(O)cc2)NC(=O)[C@H](CCC(=O)O)NC1=O)[C@@H](C)O` [SPMI-HIF2-1] (Ac-TSF[R8]EYWALL[S5][AEA]LA[Hyp]Y[hLeu]P-NH2; staple 4-11), the “enhancement of IC50 against HCT116 p53^+/+ compared with SPMI2” value in the series with HCT116 p53^+/+ cells (CCK-8, 72 h) is approximately 5 fold. Further, the IC50 with HCT116 p53^+/+ cells (CCK-8, 72 h incubation, absorbance 450 nm, read-out: IC50 (μM) HCT116 p53^+/+) is 6.7 µM. Besides, the Ki (in general, a measure of affinity in units of concentration, obtained from inhibition or displacement) at ^24-108MDMX was 530 nM. The inhibitory constant (Ki) at ^25-109MDM2 turned out to be 350 nM. In addition, in series [1], the “α-helicity (%)” value is 37%. Also, in the series “Pharmacokinetic study” (mean), the Cmax (usually the maximum level reached in the sampled fluid or tissue) worked out at 17700 ng/mL. Moreover, in “Pharmacokinetic study”, the total exposure AUC(0-inf) (as a rule, the area under the concentration-time curve extrapolated to infinity) came to 43900 ng·h/mL and the MRT – broadly, a mean duration of stay, worked out from the concentration-time curve – amounted to 11.5 h. In the series “Pharmacokinetic study” (read-out: half-life (t1/2) (converted)), the half-life is 558 min. The body weight entry in series [2] (2 mg/kg i.v. every 2 days until the 13th day, compared to saline-treated controls) is “no obvious change in body weight”. For the same compound, the “reduction in tumor weight compared to the control group” value in series [2] (2 mg/kg i.v. tail vein every 2 days until the 13th day, n = 5 mice/group) is recorded as 77%. Further, the “turning point of atypical degradation of MDM2 and MDMX” value in series [3] is recorded as “approximately 20 μM”.
